The source of these data is patent publication US20050060772A1, “Regulation of ethylene sensitivity during leaf and flower abscission” (priority 2001, published 2005).

The test system of experiment [1] is TCTR1 antisense plants. The experiment in a line: Inducible leaf abscission in TCTR1 antisense tomato plants. The settings on record: for rate of leaf abscission compared with EIN3 over-expressing plants: CTR1/TCTR1 antisense plants; for induction of leaf abscission: TCTR1 antisense under the three inducible promoters.
Experiment [2] relates to transgenic tomato flowers (EIN2 over-expression / co-suppression). The settings on record: transgenic flowers treated with ethylene (FIG. 1: 10 ppm, 16 hrs). The method, then: (§1) Flower clusters were cut from the plant, placed in a vial of water, and treated with 10 ppm ethylene for 16 hrs.
(§2) Preliminary work was conducted in tomato to test the efficacy of these approaches.

The test system of experiment [3] is wild-type tomato flowers. Conditions: wild-type flowers treated with ethylene (FIG. 1: 10 ppm, 16 hrs). The method, then: as §1, §2

Molecules are shown by their SMILES. “Also recorded” adds a separate entry of the source.

As for `CCO` [ethanol], in experiment [1], the “rate of leaf abscission compared with EIN3 over-expressing plants” value is listed as “less rapid; also recorded: not as rapid” and the “induction of leaf abscission” value is reported as “induced leaf abscission”.
Regarding `C=C` [ethylene], the “time flowers remained attached to the pedicel after treatment” value in experiment [2] is on record as “at least 5 days”. For the same compound, the “time to flower abscission after treatment” value in experiment [3] worked out at 24 h.
With `CC(C)CC[C@@H](O)[C@](C)(O)[C@H]1CC[C@@]2(O)C3=CC(=O)[C@]4(O)C[C@@H](O)[C@@H](O)C[C@]4(C)[C@H]3[C@H](O)C[C@]12C` [muristeroneA], in experiment [1], the “rate of leaf abscission compared with EIN3 over-expressing plants” value is on record as “less rapid; also recorded: not as rapid” and the “induction of leaf abscission” value is “induced leaf abscission”.
